# From patent publication US7776883B2, “Quinolin-4-ones as inhibitors of retroviral integrase for the treatment of HIV, AIDS and AIDS related complex (ARC)” (The United States of America as represented by the …, priority 2004, dated 2010)
# System: HIV-1, IIIB strain
# Experiment: Inhibition of HIV-1-induced cytopathicity in acutely infected MT-4 cells (MTT method)
# Type: cell-based
# Conditions: Human immunodeficiency virus 1, IIIB, MT4, 96 h, 4-day incubation, read-out: 50% effective concentration value (EC50)
# Protocol: Several of the compounds disclosed herein were tested for their ability to inhibit HIV cell multiplication. The compounds were solubilized in dimethyl sulfoxide at 200 mM and then diluted into culture medium. MT-4, C8166, H9/IIIB cells were grown at 37° C. in a 5% CO2 atmosphere in RPMI 1640 medium, supplemented with 10% fetal calf serum (FCS), 100 IU/mL penicillin G and 100 μg/mL streptomycin. Cell cultures were checked periodically for the absence of mycoplasma contamination with a MycoTect Kit (Gibco). Human immunodeficiency viruses type-1 (HIV-1, IIIB strain) were obtained from supernatants of persistently infected H9/IIIB. HIV-1 stock solutions had titres of 4.5×10^6 50% cell culture infectious dose (CCID50)/mL. Titration of HIV-1 was performed in C8166 cells by the standard limiting dilution method (dilution 1:2, four replica wells/dilution) in 96-well plates. The infectious virus titer was determined by light microscope scoring of cytopathicity after 4 days of incubation and the virus titers were expressed as CCID50/mL.
# Activity of the compounds against HIV-1 multiplication in acutely infected cells was based on the inhibition of virus-induced cytopathicity in MT-4 cells. Briefly, 50 μL of culture medium containing 1×10^4 cells were added to each well of flat-bottom microtiter trays containing 50 μL of culture medium with or without various concentrations of the test compounds. Then 20 μL of an HIV-1 suspension containing 100 CCID50 was added. After a 4-day incubation at 37° C., the number of viable cells was determined by the 3-(4,5-dimethylthiazol-[…])-2,5-diphenyltetrazolium bromide (MTT) method (Pauwels, R.; Balzarini, J.; Baba, M.; Snoeck, R.; Schols, D.; Herdewijn, P.; Desmyster, J.; De Clercq, E. J. Virol. Methods 1988, 20, 309-321). Cytotoxicity of the compounds was evaluated in parallel with their antiviral activity, and was based on the viability of mock-infected cells, as monitored by the MTT method.
row,Compound,EC50 [µM]
1,"CCOC(=O)C(=O)CC(=O)c1cn(Cc2ccc(F)cc2)c2ccccc2c1=O [RDS1624, 4-[1-(4-fluorophenyl)methyl-1,4-dihydro-4-oxoquinolin-3-yl]-2,4-dioxobutanoic acid ethyl ester]",3.5
2,CCOC(=O)C(=O)CC(=O)c1cn(Cc2ccc(F)cc2)c2ccc(Cl)cc2c1=O [RDS1755],5
3,"O=C(O)C(=O)CC(=O)c1cn(Cc2ccc(F)cc2)c2ccccc2c1=O [RDS1625, 4-[1-(4-fluorophenyl)methyl-1,4-dihydro-4-oxoquinolin-3-yl]-2,4-dioxobutanoic acid]",40

# System: not given
# Experiment: not given
# Conditions: not given
row,Compound,melting point [°C]
1,"O=C(O)C(=O)CC(=O)c1cn(Cc2ccc3ccccc3c2)c2ccccc2c1=O [RDS1975, 4-[1-(2-Naphthyl)methyl-1,4-dihydro-4-oxoquinolin-3-yl]-2,4-dioxobutanoic acid]",212 to 213
2,"O=C(O)C(=O)CC(=O)c1cn(Cc2ccc(F)cc2)c2cc(F)ccc2c1=O [RDS2022, 4-[1-(4-Fluorophenyl)methyl-7-fluoro-1,4-dihydro-4-oxoquinolin-3-yl]-2,4-dioxobutanoic acid]",162 to 163
3,"CCOC(=O)C(=O)CC(=O)c1c[nH]c2ccccc2c1=O [RDS1675, 4-(1,4-dihydro-4-oxoquinolin-3-yl)-2,4-dioxobutanoic acid ethyl ester]",235 to 237
4,CCOC(=O)C(=O)CC(=O)c1cn(Cc2ccc(F)cc2)c2c(Cl)cccc2c1=O,164 to 165
5,"CCOC(=O)C(=O)CC(=O)c1cn(Cc2ccc(F)cc2)c2ccc(F)cc2c1=O [RDS2077, 4-[1-(4-Fluorophenyl)methyl-6-fluoro-1,4-dihydro-4-oxoquinolin-3-yl]-2,4-dioxobutanoic acid ethyl ester]",152 to 153
6,CCOC(=O)C(=O)CC(=O)c1cn(Cc2ccc(O)cc2)c2ccccc2c1=O,179 to 181
7,"CCOC(=O)C(=O)CC(=O)c1cn(Cc2ccc(F)cc2)c2cc(F)ccc2c1=O [RDS2021, 4-[1-(4-Fluorophenyl)methyl-7-fluoro-1,4-dihydro-4-oxoquinolin-3-yl]-2,4-dioxobutanoic acid ethyl ester]",151 to 152
8,"O=C(O)C(=O)CC(=O)c1cn(Cc2ccccc2F)c2ccccc2c1=O [RDS1990, 4-[1-(2-Fluorophenyl)methyl-1,4-dihydro-4-oxoquinolin-3-yl]-2,4-dioxobutanoic acid]",172 to 174
9,"CCOC(=O)C(=O)CC(=O)c1cn(CCCCc2ccccc2)c2ccccc2c1=O [RDS1980, 4-[1-(4-Phenylbutyl)-1,4-dihydro-4-oxoquinolin-3-yl]-2,4-dioxobutanoic acid ethyl ester]",88 to 90
10,"O=C(O)C(=O)CC(=O)c1cn(Cc2ccc3ccccc3n2)c2ccccc2c1=O [RDS2000, 4-[1-(2-Quinolinyl)methyl-1,4-dihydro-4-oxoquinolin-3-yl]-2,4-dioxobutanoic acid]",> 300
11,"O=C(O)C(=O)CC(=O)c1cn(Cc2cccc(F)c2)c2ccccc2c1=O [RDS1987, 4-[1-(3-Fluorophenyl)methyl-1,4-dihydro-4-oxoquinolin-3-yl]-2,4-dioxobutanoic acid]",158 to 159
12,CCOC(=O)C(=O)CC(=O)c1cn(Cc2ccccc2F)c2cc(Cl)ccc2c1=O,173 to 175
13,O=C(O)C(=O)CC(=O)c1cn(Cc2ccc(F)cc2)c2c(F)cccc2c1=O,180 to 181
14,"O=C(O)C(=O)CC(=O)c1cn(Cc2ccc(F)cc2)c2ccccc2c1=O [RDS1625, 4-[1-(4-fluorophenyl)methyl-1,4-dihydro-4-oxoquinolin-3-yl]-2,4-dioxobutanoic acid]",207 to 209
15,"CCOC(=O)C(=O)CC(=O)c1cn(Cc2ccc3ccccc3c2)c2ccccc2c1=O [RDS1974, 4-[α-(2-Naphthyl)methyl-1,4-dihydro-4-oxoquinolin-3-yl]-2,4-dioxobutanoic acid ethyl ester]",153 to 154

# More lines, now with the values ahead:
row,melting point [°C],Compound
1,171 to 172,"O=C(O)C(=O)CC(=O)c1cn(Cc2c(F)cccc2F)c2ccccc2c1=O [RDS1984, 4-[1-(2,6-Difluorophenyl)methyl-1,4-dihydro-4-oxoquinolin-3-yl]-2,4-dioxobutanoic acid]"
2,177 to 179,CCOC(=O)C(=O)CC(=O)c1cn(Cc2cccc(OC)c2)c2ccccc2c1=O
3,136 to 138,"O=C(O)C(=O)CC(=O)c1cn(CCCCc2ccccc2)c2ccccc2c1=O [RDS1981, 4-[1-(4-Phenylbutyl)-1,4-dihydro-4-oxoquinolin-3-yl]-2,4-dioxobutanoic acid]"
4,183 to 184,"O=C(O)C(=O)CC(=O)c1cn(Cc2ccc(F)cc2)c2ccc(F)cc2c1=O [RDS2078, 4-[1-(4-Fluorophenyl)methyl-6-fluoro-1,4-dihydro-4-oxoquinolin-3-yl]-2,4-dioxobutanoic acid]"
5,141 to 142,"O=C(O)C(=O)CC(=O)c1cn(Cc2ccccc2)c2ccccc2c1=O [RDS1993, 4-(1-Phenylmethyl-1,4-dihydro-4-oxoquinolin-3-yl)-2,4-dioxobutanoic acid]"
6,237 to 238,"CCOC(=O)C(=O)CC(=O)c1cn(Cc2ccc3ccccc3n2)c2ccccc2c1=O [RDS1999, 4-[1-(2-Quinolinyl)methyl-1,4-dihydro-4-oxoquinolin-3-yl]-2,4-dioxobutanoic acid ethyl ester]"
7,187 to 189,O=C(O)C(=O)CC(=O)c1cn(Cc2ccccc2F)c2cc(Cl)ccc2c1=O
8,154 to 156,CCOC(=O)C(=O)CC(=O)c1cn(Cc2ccccc2OC)c2ccccc2c1=O
